{"source": "patent US6984403B2", "about": "“Azithromycin dosage forms with reduced side effects” (Pfizer Inc., priority 2003, dated 2006)", "key": {"[1]": {"settings": "taken simultaneously with antacids; cited from earlier work"}, "[2]": {"settings": "3,995 human patients, all dose levels combined, cited from earlier work"}, "[3]": {"assay": "Azithromycin solubility as a function of pH", "assay_type": "physicochemical", "protocol": "The effective amount of alkaline agent that would suppress the dissolution of azithromycin in the stomach and thereby result in an improvement in the toleration of the immediate release (IR) formulation was calculated as follows. The IR formulation, without an alkalizing agent, releases about 92% of the drug in 30 minutes at pH 6.0 as described in Example 5, i.e., 3.07% per minute at pH 6.0. To improve the toleration, the azithromycin dissolution rate must be reduced, preferably to a rate that will release only about 1.5 gA, or less, in the first 30 minutes or no greater than 2.5% per minute. It was assumed that the rate of drug dissolution from an IR formulation is directly proportional to the solubility of azithromycin, which is dependent on the pH as shown in Table 10."}, "[4]": {"settings": "cited from earlier work"}, "[5]": {"settings": "adult humans, single 1 gram dose, oral suspension"}, "[6]": {"settings": "adult humans, single 2 gram, oral suspension"}, "[7]": {"settings": "pediatric humans, oral suspension 10 mg/kg on Day 1 and 5 mg/kg on days 2–5"}, "[8]": {"settings": "pediatric humans, single 30 mg/kg dose, oral suspension"}}, "note": "Read-outs that look alike come from different tables or passages of the source."}
{"smiles": "CC[C@H]1OC(=O)[C@H](C)[C@@H](O[C@H]2C[C@@](C)(OC)[C@@H](O)[C@H](C)O2)[C@H](C)[C@@H](O[C@@H]2O[C@H](C)C[C@H](N(C)C)[C@H]2O)[C@](C)(O)C[C@@H](C)CN(C)[C@H](C)[C@@H](O)[C@]1(C)O", "note": "[Azithromycin, azithromycin]", "values": [{"measurement": "reduction of azithromycin maximum serum concentration Cmax by antacids", "setting": "[1]", "result": 24, "unit": "%"}, {"measurement": "patients reporting GI side effects", "setting": "[2]; oral", "result": 9.6, "unit": "%"}, {"measurement": "frequency of abdominal pain", "setting": "[2]", "result": 2.5, "unit": "%"}, {"measurement": "frequency of diarrhea", "setting": "[2]", "result": 3.6, "unit": "%"}, {"measurement": "frequency of nausea", "setting": "[2]", "result": 2.6, "unit": "%"}, {"measurement": "solubility", "setting": "[3]; aqueous buffer, pH 6.0, obtained by interpolation from Table 10, read-out: azithromycin solubility at pH 6.0", "result": 390, "unit": "mg/mL"}, {"measurement": "solubility", "setting": "[3]; pH 2.88, aqueous buffer, read-out: Azithromycin Solubility", "result": 440, "unit": "mg/mL"}, {"measurement": "solubility", "setting": "[3]; pH 4.09, aqueous buffer, read-out: Azithromycin Solubility", "result": 430, "unit": "mg/mL"}, {"measurement": "solubility", "setting": "[3]; pH 6.15, aqueous buffer, read-out: Azithromycin Solubility", "result": 380, "unit": "mg/mL"}, {"measurement": "solubility", "setting": "[3]; pH 6.42, aqueous buffer, read-out: Azithromycin Solubility", "result": 310, "unit": "mg/mL"}, {"measurement": "solubility", "setting": "[3]; pH 6.61, aqueous buffer, read-out: Azithromycin Solubility", "result": 250, "unit": "mg/mL"}, {"measurement": "solubility", "setting": "[3]; pH 6.65, aqueous buffer, read-out: Azithromycin Solubility", "result": 140, "unit": "mg/mL"}, {"measurement": "solubility", "setting": "[3]; pH 6.75, aqueous buffer, read-out: Azithromycin Solubility", "result": 120, "unit": "mg/mL"}, {"measurement": "solubility", "setting": "[3]; pH 6.87, aqueous buffer, read-out: Azithromycin Solubility", "result": 36, "unit": "mg/mL"}, {"measurement": "solubility", "setting": "[3]; pH 7.41, aqueous buffer, read-out: Azithromycin Solubility", "result": 5, "unit": "mg/mL"}, {"measurement": "solubility", "setting": "[3]; pH 8.02, aqueous buffer, read-out: Azithromycin Solubility", "result": 0.5, "unit": "mg/mL"}, {"measurement": "solubility", "setting": "[3]; pH 8.85, aqueous buffer, read-out: Azithromycin Solubility", "result": 0.02, "unit": "mg/mL"}, {"measurement": "solubility", "setting": "[3]; pH 10.34, aqueous buffer, read-out: Azithromycin Solubility", "result": 0.005, "unit": "mg/mL"}, {"measurement": "reported incidence of abdominal pain", "setting": "[4]; [5]", "result": 5, "unit": "%"}, {"measurement": "reported incidence of diarrhea/loose stools", "setting": "[4]; [5]", "result": 7, "unit": "%"}, {"measurement": "reported incidence of nausea", "setting": "[4]; [5]", "result": 5, "unit": "%"}, {"measurement": "reported incidence of vomiting", "setting": "[4]; [5]", "result": 2, "unit": "%"}, {"measurement": "reported incidence of abdominal pain", "setting": "[4]; [6]", "result": 7, "unit": "%"}, {"measurement": "reported incidence of diarrhea/loose stools", "setting": "[4]; [6]", "result": 14, "unit": "%"}, {"measurement": "reported incidence of vomiting", "setting": "[4]; [6]", "result": 7, "unit": "%"}, {"measurement": "reported incidence of abdominal pain", "setting": "[4]; [7]", "result": 2, "unit": "%"}, {"measurement": "reported incidence of diarrhea/loose stools", "setting": "[4]; [7]", "result": 4, "unit": "%"}, {"measurement": "reported incidence of vomiting", "setting": "[4]; [7]", "result": 2, "unit": "%"}, {"measurement": "reported incidence of diarrhea/loose stools", "setting": "[4]; [8]", "result": 6.4, "unit": "%"}, {"measurement": "reported incidence of nausea", "setting": "[4]; [8]", "result": 1.7, "unit": "%"}, {"measurement": "reported incidence of vomiting", "setting": "[4]; [8]", "result": 4, "unit": "%"}]}
